Data: US11840686B2, “Modulation of prekallikrein (PKK) expression” (Ionis Pharmaceuticals, Inc., priority 2013, dated 2023)
Strand notation (5' to 3'): a small letter for the sugar, then the base; units joined by * are phosphorothioate-linked, units joined directly phosphodiester-linked; [ ] holds rarer units or linkages, { } end groups; capitals alone tell only the bases. e = 2'-O-(2-methoxyethyl) (MOE); [5mC] = 5-methylcytosine; d = 2'-deoxy (DNA)

Columns and labels:
[1] = tested on: human PKK mRNA; test: Antisense inhibition of human PKK mRNA in HepaRG cells, 3,000 nM (Example 1); format: cell-based; details: relative to untreated control cells
How it was run: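 Values give percent PKK mRNA reduction relative to untreated controls, normalised to RIBOGREEN total RNA. mRNA was quantified by real-time PCR (RTS3454) about 24 h after electroporation. Each 20-mer MOE gapmer was delivered at 3,000 nM into 20,000 HepaRG cells per well.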

[2] = tested on: human PKK mRNA; test: Dose-dependent antisense inhibition of human PKK in HepaRG cells, 0.12-10.00 uM (Example 4); format: cell-based; details: electroporation, ~16 h
Procedure: Cells were plated at a density of 20,000 cells per well and transfected using electroporation with 0.12 μM, 0.37 μM, 1.11 μM, 3.33 μM, and 10.00 μM concentrations of antisense oligonucleotide. After a treatment period of approximately 16 hours, RNA was isolated from the cells and PKK mRNA levels were measured by quantitative real-time PCR. Human PKK primer probe set RTS3454 was used to measure mRNA levels. PKK mRNA levels were adjusted according to total RNA content, as measured by RIBOGREEN®. The antisense oligonucleotides were tested in a series of experiments that had similar culture conditions. Results are presented as percent inhibition of PKK, relative to untreated control cells.
The half maximal inhibitory concentration (IC50) of each oligonucleotide is also presented.

[3] = Table 2, PKK mRNA, HepaRG cells, 3,000 nM, electroporation, ~24 h
[4] = Table 1, PKK mRNA, HepaRG cells, 3,000 nM, electroporation, ~24 h

531071 (e[5mC]*eT*eG*e[5mC]*eT*d[5mC]*dT*dG*dT*dG*dT*dT*dT*dT*d[5mC]*eT*e[5mC]*eT*eA*eA; antisense) [compound 531071]
% inhibition [1, 3]: 73% | percent inhibition of PKK at 0.12 μM ([2]; Table 33, 0.12 μM): 23% | percent inhibition of PKK at 0.37 μM ([2]; Table 33, 0.37 μM): 37% | percent inhibition of PKK at 1.11 μM ([2]; Table 33, 1.11 μM): 56% | percent inhibition of PKK at 3.33 μM ([2]; Table 33, 3.33 μM): 83% | percent inhibition of PKK at 10.00 μM ([2]; Table 33, 10.00 μM): 83% | IC50 ([2]; Table 33, PKK mRNA): 700 nM

531055 (antisense e[5mC]*e[5mC]*e[5mC]*eT*eT*d[5mC]*dT*dT*dT*dA*dT*dA*dG*d[5mC]*d[5mC]*eA*eG*e[5mC]*eA*e[5mC]) [compound 531055]
% inhibition [1, 3]: 68% | percent inhibition of PKK at 0.12 μM ([2]; Table 33, 0.12 μM): 3% | percent inhibition of PKK at 0.37 μM ([2]; Table 33, 0.37 μM): 28% | percent inhibition of PKK at 1.11 μM ([2]; Table 33, 1.11 μM): 64% | percent inhibition of PKK at 3.33 μM ([2]; Table 33, 3.33 μM): 76% | percent inhibition of PKK at 10.00 μM ([2]; Table 33, 10.00 μM): 81% | IC50 ([2]; Table 33, PKK mRNA): 900 nM

530933 (antisense eT*eG*eG*eA*eG*dG*dT*dG*dA*dG*dT*d[5mC]*dT*d[5mC]*dT*eT*eG*eT*e[5mC]*eA) [compound 530933]
% inhibition [1, 4]: 76% | percent inhibition of PKK at 0.12 μM ([2]; Table 32, 0.12 μM): 15% | percent inhibition of PKK at 0.37 μM ([2]; Table 32, 0.37 μM): 13% | percent inhibition of PKK at 1.11 μM ([2]; Table 32, 1.11 μM): 42% | percent inhibition of PKK at 3.33 μM ([2]; Table 32, 3.33 μM): 67% | percent inhibition of PKK at 10.00 μM ([2]; Table 32, 10.00 μM): 66% | IC50 ([2]; Table 32, PKK mRNA): 1700 nM

531005 (e[5mC]*eT*e[5mC]*eA*eA*dA*dG*dA*dG*dT*dA*dA*d[5mC]*d[5mC]*dA*eG*eA*eG*e[5mC]*eT; antisense) [compound 531005]
% inhibition [1, 4]: 76% | percent inhibition of PKK at 0.12 μM ([2]; Table 32, 0.12 μM): 14% | percent inhibition of PKK at 0.37 μM ([2]; Table 32, 0.37 μM): 28% | percent inhibition of PKK at 1.11 μM ([2]; Table 32, 1.11 μM): 61% | percent inhibition of PKK at 3.33 μM ([2]; Table 32, 3.33 μM): 73% | percent inhibition of PKK at 10.00 μM ([2]; Table 32, 10.00 μM): 77% | IC50 ([2]; Table 32, PKK mRNA): 900 nM

531233 (eA*e[5mC]*eT*eG*eT*dA*d[5mC]*dT*dA*dG*dT*dT*dT*d[5mC]*d[5mC]*eT*eA*eT*eA*eA; antisense) [compound 531233]
% inhibition ([1]; Table 4, HepaRG cells, electroporation with 3,000 nM antisense oligonucleotide, approx. 24 hours, PKK mRNA by RT-PCR (RTS3454)): 86% | percent inhibition of PKK at 0.12 μM ([2]; Table 33, 0.12 μM): 17% | percent inhibition of PKK at 0.37 μM ([2]; Table 33, 0.37 μM): 27% | percent inhibition of PKK at 1.11 μM ([2]; Table 33, 1.11 μM): 50% | percent inhibition of PKK at 3.33 μM ([2]; Table 33, 3.33 μM): 77% | percent inhibition of PKK at 10.00 μM ([2]; Table 33, 10.00 μM): 84% | IC50 ([2]; Table 33, PKK mRNA): 1000 nM

531069 (e[5mC]*e[5mC]*eA*eG*eT*d[5mC]*d[5mC]*dA*dT*dG*dT*dA*d[5mC]*dT*d[5mC]*eA*eG*e[5mC]*eG*eA; antisense) [compound 531069]
% inhibition [1, 3]: 56% | percent inhibition of PKK at 0.12 μM ([2]; Table 33, 0.12 μM): 19% | percent inhibition of PKK at 0.37 μM ([2]; Table 33, 0.37 μM): 39% | percent inhibition of PKK at 1.11 μM ([2]; Table 33, 1.11 μM): 48% | percent inhibition of PKK at 3.33 μM ([2]; Table 33, 3.33 μM): 76% | percent inhibition of PKK at 10.00 μM ([2]; Table 33, 10.00 μM): 83% | IC50 ([2]; Table 33, PKK mRNA): 900 nM

530965 (antisense eG*eG*e[5mC]*eA*e[5mC]*dA*dG*dG*dG*d[5mC]*dT*dT*d[5mC]*dA*dG*eT*eG*eA*eG*eA) [compound 530965]
% inhibition [1, 4]: 73% | percent inhibition of PKK at 0.12 μM ([2]; Table 32, 0.12 μM): 8% | percent inhibition of PKK at 0.37 μM ([2]; Table 32, 0.37 μM): 5% | percent inhibition of PKK at 1.11 μM ([2]; Table 32, 1.11 μM): 63% | percent inhibition of PKK at 3.33 μM ([2]; Table 32, 3.33 μM): 83% | percent inhibition of PKK at 10.00 μM ([2]; Table 32, 10.00 μM): 91% | IC50 ([2]; Table 32, PKK mRNA): 800 nM
